Test results published in PubChem BioAssay (NCI).
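Test compounds were applied to cells in 96-well plates for 48 hours at 5 doses. TGI denotes the concentration required for complete inhibition of growth.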

Experiments:
Assay in all cases: NCI anticancer screen, dose series, 48 h
HOP-18 NSCLC = tested on: HOP-18 NSCLC
UO-31 renal = tested on: UO-31 renal
HOP-92 NSCLC = tested on: HOP-92 NSCLC
CCRF-CEM leukemia = tested on: CCRF-CEM leukemia
LOX IMVI melanoma = tested on: LOX IMVI melanoma
SK-MEL-2 melanoma = tested on: SK-MEL-2 melanoma
TK-10 renal = tested on: TK-10 renal
COLO 205 colon = tested on: COLO 205 colon
SF-539 CNS = tested on: SF-539 CNS
UACC-62 melanoma = tested on: UACC-62 melanoma
NCI-H460 lung = tested on: NCI-H460 lung
OVCAR-8 ovarian = tested on: OVCAR-8 ovarian
RXF-631 renal = tested on: RXF-631 renal
NCI-H522 lung = tested on: NCI-H522 lung
KM12 colon = tested on: KM12 colon
SR leukemia = tested on: SR leukemia
OVCAR-4 ovarian = tested on: OVCAR-4 ovarian
HCT-116 colon = tested on: HCT-116 colon
HCT-15 colon = tested on: HCT-15 colon
OVCAR-3 ovarian = tested on: OVCAR-3 ovarian
DMS 273 small cell lung = tested on: DMS 273 small cell lung
SK-MEL-5 melanoma = tested on: SK-MEL-5 melanoma
IGROV1 ovarian = tested on: IGROV1 ovarian
KM20L2 colon = tested on: KM20L2 colon
SNB-75 CNS = tested on: SNB-75 CNS
HT29 colon = tested on: HT29 colon
HL-60(TB) leukemia = tested on: HL-60(TB) leukemia
SNB-19 CNS = tested on: SNB-19 CNS
EKVX NSCLC = tested on: EKVX NSCLC
K-562 leukemia = tested on: K-562 leukemia
A498 renal = tested on: A498 renal
M14 melanoma = tested on: M14 melanoma
786-0 renal = tested on: 786-0 renal
SNB-78 CNS = tested on: SNB-78 CNS
NCI-H226 lung = tested on: NCI-H226 lung
SK-OV-3 ovarian = tested on: SK-OV-3 ovarian
OVCAR-5 ovarian = tested on: OVCAR-5 ovarian
SF-295 CNS = tested on: SF-295 CNS
UACC-257 melanoma = tested on: UACC-257 melanoma
ACHN renal = tested on: ACHN renal
HCC-2998 colon = tested on: HCC-2998 colon
HOP-62 NSCLC = tested on: HOP-62 NSCLC
SF-268 CNS = tested on: SF-268 CNS
MALME-3M melanoma = tested on: MALME-3M melanoma
XF 498 CNS = tested on: XF 498 CNS
SW-620 colon = tested on: SW-620 colon
RPMI-8226 leukemia = tested on: RPMI-8226 leukemia
A549 NSCLC = tested on: A549 NSCLC
SK-MEL-28 melanoma = tested on: SK-MEL-28 melanoma
U251 CNS = tested on: U251 CNS
SN12C renal = tested on: SN12C renal
CAKI-1 renal = tested on: CAKI-1 renal
RXF 393 renal = tested on: RXF 393 renal
DMS 114 small cell lung = tested on: DMS 114 small cell lung
LXFL 529 NSCLC = tested on: LXFL 529 NSCLC
NCI-H23 lung = tested on: NCI-H23 lung
MOLT-4 leukemia = tested on: MOLT-4 leukemia

Measured: TGI

Cc1cc(Cl)ccc1NC(=O)CC/C(CC(=O)C(C)C)=N\NC(=O)C[n+]1ccccc1
> 100 µM: HOP-18 NSCLC | UO-31 renal | HOP-92 NSCLC | CCRF-CEM leukemia | LOX IMVI melanoma | SK-MEL-2 melanoma | TK-10 renal | COLO 205 colon | SF-539 CNS | UACC-62 melanoma | NCI-H460 lung | OVCAR-8 ovarian | RXF-631 renal | NCI-H522 lung | KM12 colon | SR leukemia | OVCAR-4 ovarian | HCT-116 colon | HCT-15 colon | OVCAR-3 ovarian | DMS 273 small cell lung | SK-MEL-5 melanoma | IGROV1 ovarian | KM20L2 colon | SNB-75 CNS | HT29 colon | HL-60(TB) leukemia | SNB-19 CNS | EKVX NSCLC | K-562 leukemia | A498 renal | M14 melanoma | 786-0 renal | SNB-78 CNS | NCI-H226 lung | SK-OV-3 ovarian | OVCAR-5 ovarian | SF-295 CNS | UACC-257 melanoma | ACHN renal | HCC-2998 colon | HOP-62 NSCLC | SF-268 CNS | MALME-3M melanoma | XF 498 CNS | SW-620 colon | RPMI-8226 leukemia | A549 NSCLC | SK-MEL-28 melanoma | U251 CNS | SN12C renal | CAKI-1 renal | RXF 393 renal | DMS 114 small cell lung | LXFL 529 NSCLC | NCI-H23 lung | MOLT-4 leukemia
